Data taken from US7777041B2, “2-acylamino-4-phenylthiazole derivatives, preparation thereof and therapeutic application thereof” (sanofi-aventis, priority 2003, dated 2010).
Where two headings read alike, the source gives them in different places.

How the values were obtained:
human CCR2b receptor = target: T1, human CCR2b receptor (Homo sapiens, UniProt P41597); test: Inhibitory activity on cells expressing the human CCR2b receptor; type: cell-based
T1 sequence (P41597 1-360 isoform P41597-2): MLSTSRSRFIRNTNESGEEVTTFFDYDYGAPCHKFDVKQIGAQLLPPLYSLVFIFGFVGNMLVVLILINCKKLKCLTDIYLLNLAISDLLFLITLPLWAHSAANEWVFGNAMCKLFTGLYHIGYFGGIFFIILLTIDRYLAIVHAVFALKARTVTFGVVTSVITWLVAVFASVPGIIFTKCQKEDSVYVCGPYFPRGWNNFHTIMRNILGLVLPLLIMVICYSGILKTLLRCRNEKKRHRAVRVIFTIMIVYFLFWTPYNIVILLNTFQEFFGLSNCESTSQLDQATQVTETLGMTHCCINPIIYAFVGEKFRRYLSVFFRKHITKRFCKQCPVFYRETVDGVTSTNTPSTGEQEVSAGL
Procedure: The inhibitory activity of the compounds according to the invention on cells expressing the human CCR2b receptor was measured.

HIV-1 Bal virus = test: Inhibitory activity on PBMCs infected with HIV-1 Bal virus (reverse transcriptase content in supernatant); type: cell-based; conditions: 5 days exposure, read-out: IC50 of inhibition of HIV-1 Bal replication in PBMCs
Procedure: The inhibitory activity of the compounds according to the invention on PBMCs (peripheral blood mononuclear cells) infected with the HIV-1 Bal virus was also measured, according to a technique adapted from that described by V. Dolle et al., J. Med. Chem., 2000, 43, 3949, 3962. According to this technique, the PMBCs are infected with HIV-1 Bal and the test compounds are then added to the culture medium for 5 days. At the end of this exposure, the content of reverse transcriptase, which is correlated with the level of viral replication in the cells, is measured in the supernatant.
Under these conditions, AZT, a reference molecule which inhibits viral replication, has an IC50 value of less than 0.1 μM.

human THP-1 monocytes = test: Inhibition of chemotaxis on human THP-1 monocytes (adapted from Albini et al.); type: cell-based; conditions: hMCP-1
Procedure: The inhibition of chemotaxis was also measured on human THP-1 monocytes (sold by DSMZ-Germany) using a technique adapted from that described by A. Albini et al., Cancer Res., 1987, 47, 3239-3245. Under these conditions, hMCP-1 has an IC50 value of 6 nM.
The inhibition of chemotaxis by the compounds according to the invention is a sign of their antagonist activity on the chemokine receptors and in particular CCR2b.

[1] = read-out: IC50 of inhibitory activity on cells expressing the human CCR2b receptor

Compound | IC50 (human CCR2b receptor; [1]) | melting point | further results
CCCc1ccc(OC)c(-c2csc(NC(=O)c3ccc(C(=O)N4CCC(N5CC[C@@H](N(C)C)C5)CC4)cc3)n2)c1 [compound 203] | 93 nM | – | –
CCCCc1ccc(OC)c(-c2csc(NC(=O)c3ccc(CCCNC4CCOCC4)cc3)n2)c1 [compound 182, N-[4-(5-Butyl-2-methoxyphenyl)-1,3-thiazol-2-yl]-4-[3-(tetrahydro-2H-pyran-4-ylamino)propyl]benzamide] | – | 150 °C | –
CCOc1ccc(OCC)c(-c2csc(NC(=O)c3ccc(OCCN(CC)CC)cc3)n2)c1 [compound 12] | 81 nM | – | –
CCOc1ccc(C2CCCCC2)cc1-c1csc(NC(=O)c2ccc(C(=O)N3CCC(=O)CC3)cc2)n1 [compound 244] | 88 nM | 236 °C | –
CCCCc1ccc(OC)c(-c2csc(NC(=O)c3ccc(C(=O)N4CCC(NC5CCOCC5)CC4)cc3)n2)c1.Cl.Cl [68] | – | 181 to 189 °C | –
Cc1cn([C@H]2C[C@H](N=[N+]=[N-])[C@@H](CO)O2)c(=O)[nH]c1=O [AZT] | – | – | IC50 (HIV-1 Bal virus): < 100 nM
hMCP-1: "hMCP-1 (human monocyte chemotactic protein), which belongs to the group of CC chemokines and whose actions are mediated by the CCR2b receptor" | – | – | IC50 (human THP-1 monocytes): 6 nM; IC50 (human CCR2b receptor; natural agonist, read-out: concentration of natural agonist hMCP-1 that inhibits 50% (IC50) of the activity of the CCR2b receptor): 0.57 nM
